Assay results reported in patent publication US8404747B2, “Compositions and methods for modulating interaction between polypeptides” (The General Hospital Corporation, priority 2004, dated 2013).
Read-outs that look alike come from different tables or passages of the source.

Key:
[1] = system: SP1 trancription factor binding motif (6XSP1) promoter; test: 6XSP1 luciferase transcription-based assay in 111Q/111Q striatum double knock-in cells; format: cell-based, mouse; conditions: 6XSP1 luciferase reporter; for transcription activation: CG4 among CG series, less potent than C9-4
Protocol: FIGS. 1A-1C. FIG. 1A is a bar graph showing luciferase expression in Sp1-luc/111Q striatum double knock-in cells following treatment with different compounds, as indicated. Fluorescence was measured 24 hours after addition of compound. FIG. 1B is a bar graph as described in FIG. 1A. Fluorescence was measured 48 hours after addition of compound. FIG. 1C is a bar graph as described in FIG. 1A. Fluorescence was measured 72 hours after addition of compound.
We conducted structure activity relationship (SAR) studies to optimize transcription activation. We developed a novel transcription-based assay for this purpose. A luciferase reporter gene was stably integrated into 111Q/111Q striatum double knock-in cells and constitutively expressed under control of a promoter containing six copies of the SP1 trancription factor binding motif (6XSP1). In this system, C9 was determined to have an EC200 of 7.5 μM.

[2] = system: aggregation of 103Q in PC12 cells; test: polyQ (103Q) aggregation in ecdyson-inducible PC12 cells; format: cell-based, rat; conditions: Rattus norvegicus, PC-12
Protocol: To study the inhibitors we identified using the yeast screen in mammalian cells, we employed ecdyson-inducible rat phaeochromocytoma (PC12) cells. Compounds were tested in two clones, 14A2/5 and 14A2/6, with highest aggregation rate. We incubated undifferentiated PC12 cells with muristerone A to induce 103Q expression, and we exposed the cells to compounds at concentrations ranging from 1 to 10 μM. […] All compounds were non-toxic except C2, which was toxic at concentrations higher than 5 μM.
We tested these analogs at concentrations ranging from 0.025 μM to 5.0 μM for their effects on polyQ aggregation in PC12 cells. Among 24 analogs of C1; 28 analogs of C2; 24 analogs of C3, and 53 analogs of C4, we identified several potent inhibitors of polyQ aggregation. From our C2 focus library, we isolated compound C2-8 (B2 in Table 2), which inhibits polyQ aggregation with an IC50 value 50 nM. We also identified C2-10 (B6 in Table 2) and C2-11 (M16 (formula V(n)) in Table 5), and B7, B8 and B9 in Table 2. From our C3 focus library, we isolated compound C3-5 (M22 (formula V(t)) in Table 5) (having an IC50 value of 100 nM) and compound C3-6 (M17 (formula V(o)) in Table 5) (having an IC50 value of 5 μM). From our C4 library, we isolated compound C4-7 (A31 in Table 1), which has an IC50 value 100 nM. We also identified C4-34 (A3 in Table 1).

[3] = system: HD Q51 aggregates in Cos1 cells; test: HD Q51 aggregation in transfected Cos1 cells, cellulose acetate membrane trap; format: cell-based; conditions: Chlorocebus aethiops, COS-1; Cos1 cells transfected with HD Q51; read-out: IC50, polyQ aggregation (retained polyQ on membrane)
Protocol: The inhibitory activity we observed with C1-C4 in the PC12 cell model described above was confirmed in Cos1 cells transiently transfected with a CMV promoter-based DNA construct that encodes an Htt exon I fragment of Huntington's disease protein (Htt)) having 51 consecutive glutamine residues (HD Q51). When expressed in Cos1 cells, HD 51Q polypeptides readily form aggregates. Transfected Cos1 cells were incubated with C1-C4 compounds in culture medium and lysed. The lysates were then heat-denatured in SDS and passed through a cellulose acetate membrane, which captures aggregated, but not soluble polypeptides. Polyglutamine aggregates trapped on membranes were detected by immunostaining with antibody specific to extended polyQ. Pre-incubation of cells with compounds C1, C3, and C4 decreased the amount of retained polyQ, indicating inhibitory effects on polyQ aggregation. The IC50 for compound C1 was 10 μM and the IC50 for compounds C3 and C4 was 5 μM. As C2 was toxic for Cos1 cells, its effect on aggregation was not determined.

[4] = system: polyQ aggregates (HD Q150) in neurons of R6/2 mouse brain slices; test: polyQ aggregation in R6/2 brain slice cultures; format: cell-based; conditions: 3-week time point
Protocol: The effects of the selected compounds on polyQ aggregation in neuronal tissues were assessed in brain slice cultures from the transgenic mouse R6/2 model of HD. R6/2 mice ubiquitously express human Huntingtin exon I containing 150Q (HD Q150), which causes neuropathology resembling key neurological changes in HD patients. Formation of neuronal polyQ aggregates precedes pathological behavioural changes in R6/2 mice. An organotypic slice culture assay has been developed in order to establish an ex vivo system that closely models the process of aggregation occurring in R6/2 mouse brains. […] The potency of any aggregate inhibitor can be assessed directly in neurons in brain slices (thus bypassing the blood brain barrier, the major obstacle to test compounds in neuronal tissues).
Aggregation in brain slice cultures was assessed during four weeks using three parameters: (1) the number of aggregates per square millimeter, (2) the density of individual aggregates, and (3) the size of the aggregates. These parameters can be assessed in any of the assays described herein. […] To obtain statistically significant data, 20 sections for each sample were quantified with a macro computer program (Paul Wetton at Image Associates, UK), which measured aggregate count, aggregate density and aggregate size. […]

[5] = biological target: T1, Recombinant HD Q51 polypeptide (Homo sapiens, UniProt P42858, INS38QQQQQQQQQQQQQQQQQQQQQQQQQQQQQQ); test: cell-free trap assay of purified polyQ; format: biochemical; conditions: cell-free trap assay; read-out: IC50, aggregation of purified polyQ
T1 construct: made in house
Protocol: To determine whether C2 could directly interfere with polyQ aggregation, we reproduced this process in vitro and assayed the inhibitory effects of the compounds in a cell-free trap assay. Recombinant HD Q51 polypeptide, purified from bacteria, was incubated in the presence or in the absence of C2 for a time sufficient to allow aggregation. Then, upon heat-denaturation in SDS buffer, samples were filtered through a cellulose acetate membrane. Harsh denaturation conditions separated unaggregated soluble peptides, which passed through the membrane, and insoluble aggregates, which were retained on the membrane. The polyQ aggregates trapped on the membrane were subsequently immunostained and quantified.
Congo Red, which is structurally unrelated to C2-8, was used as a control.

cells = test: nonspecific toxicity to cells; format: cell-based
HDAc = HDAc activity; format: biochemical; conditions: at high concentrations; down-regulation of HDAc 5
[6] = system: polyQ-containing polypeptides; test: aggregation of polyQ-containing polypeptides, assay not specified
htt103Q-EGFP = test: PC12 htt103Q-EGFP fluorescence assay; format: cell-based; conditions: PC12 cells
From the text: A PC12 cell line was engineered to express extended polyQ under the control of an ecdysone-inducible promoter. In the assay cell line, an N-terminal fragment of htt containing an extended polyQ tract was stably expressed as a fusion with EGFP (htt103Q-EGFP), from the pIND vector. Expression of extended polyQ in these cells was controlled by addition of an ecdysone analog, in this case muristerone A. In this assay, EGFP fluorescence directly correlated with htt103Q-EGFP expression levels. This system was designed to assess the effects of specific compounds on overall levels of extended polyglutamines in cells, using a simple fluorescent-based read-out.

PC12 cells = test: rescue from scriptaid-dependent synthetic lethality in PC12 cells; format: cell-based, rat
From the text: (§1) The compound C9 (A33 in Table 1) has structural similarity to the histone deacetylase (HDAc) inhibitor, scriptaid (6-(1,3-Dioxo-1H,3H-benzo[de]isoquinolin-2-yl)-N-hydroxyhexanamide) (Su et al., Cancer Res. 60:3137, 2000; A5 in Table 1). We observed the most dramatic effect on expression level by C9 and scriptaid in the PC12 cell line 14A2/6 expressing the extended polyQ mutant htt(104Q). The effect of C9 on the down-regulation of polyQ expression, was similar to cystamine, a drug that has shown efficacy in a mouse model for Huntington's Disease (HD). […] 14A2/6 cells were at least 5-fold more responsive to chemical treatment than other cell lines tested.

[7] = system: mutant Huntingtin transgene (htt); test: transgene (mutant htt, extended polyQ) expression in inducible PC12 cells; format: cell-based, rat; conditions: PC12 cells, with scriptaid
From the text: as §1
Transcriptional dysregulation is a hallmark of HD. […] Expression of the polypeptide was under control of an inducible ecdysone receptor (EcR)-based promoter.

R2/6 HD mice = conditions: cited from earlier work
[8] = PC12 clones 14A2/5 and 14A2/6, muristerone A induced, 1 to 10 μM, read-out: IC50, aggregation of 103Q
[9] = PC12 cells, focus library analogs, 0.025 μM to 5.0 μM, read-out: IC50, polyQ aggregation

T1 sequence (P42858 with tags, fused parts or gaps with the stated changes): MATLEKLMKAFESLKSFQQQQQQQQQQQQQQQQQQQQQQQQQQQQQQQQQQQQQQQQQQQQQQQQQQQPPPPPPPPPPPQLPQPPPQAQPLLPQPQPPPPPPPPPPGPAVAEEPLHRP

In the case of `CCN1C(=O)c2cccc3c(NC(C)=O)ccc1c23` [CG4, N-(1-Ethyl-2-oxo-1,2-dihydro-benzo[cd]indol-6-yl)-acetamide], the transcription activation [1] is reported as “most potent transcriptional activator”.
For `CN(C)CCN1C(=O)c2ccc(Cl)c3c(Cl)ccc(c23)C1=O` [Compound C1, 6,7-Dichloro-2-(2-dimethylamino-ethyl)-benzo[de]isoquinoline-1,3-dione], the IC50 [2, 8] was 10 µM and the IC50 [3] was 10 µM.
`O=C(Nc1ccc(Br)cc1)c1cccc(S(=O)(=O)Nc2ccc(Br)cc2)c1` [Compound C2-8, N-(4-Bromo-phenyl)-3-(4-bromo-phenylsulfamoyl)-benzamide] gave a concentration inhibiting aggregates intensity and area [4] of 10 µM, an IC50 [2, 9] of 0.05 µM and an IC50 [5] of 25 µM.
`CC/C(=C/c1sc2ccc3ccccc3c2[n+]1CCCS(=O)(=O)[O-])SC` [Compound C3, 3-[2-(2-Methylsulfanyl-but-1-enyl)-naphtho[1,2-d]thiazol-1-yl]-propane-1-sulfonic acid anion] showed an IC50 [2, 8] of 5 µM and an IC50 [3] of 5 µM.
Compound `c1ccc(-c2nc3cnc4ccccc4c3s2)cc1` [Compound C3-6, 2-Phenyl-thiazolo[4,5-c]quinoline] has an IC50 [2, 9] of 5 µM.
With `O=C1c2cccc3c(N4CCOCC4)ccc(c23)C(=O)N1Cc1ccccc1` [Compound C4, 2-Benzyl-6-morpholin-4-yl-benzo[de]isoquinoline-1,3-dione] the IC50 [2, 8] was 2.5 µM and the IC50 [3] was 5 µM.
With `O=C1c2cccc3c(N4CCCCC4)ccc(c23)C(=O)N1CO` [Compound C4-7, 2-Hydroxymethyl-6-piperidin-1-yl-benzo[de]isoquinoline-1,3-dione] the IC50 [2, 9] was 0.1 µM.
In the case of `CN(C)CCN1C(=O)c2cccc3cccc(c23)C1=O` [Compound C9-1B, 2-(2-Dimethylamino-ethyl)-benzo[de]isoquinoline-1,3-dione], the “range of weak nonspecific toxicity” value (cells) is reported as 1.25 to 5.0 µM and the “EC200, transcription activation” value [1] is reported as 50 nM.
In the case of `O=C1c2cccc3cccc(c23)C(=O)N1CCNCO` [Compound C9-3, 2-[2-(Hydroxymethyl-amino)-ethyl]-benzo[de]isoquinoline-1,3-dione], the transcription activation [1] is reported as “did not effectively activate transcription”.
With `O=C1c2cccc3cccc(c23)C(=O)N1CCN1CCCCC1` [Compound C9-4, 2-(2-Piperidin-1-yl-ethyl)-benzo[de]isoquinoline-1,3-dione] the HDAc inhibitory activity (HDAc) was “indirect HDAc inhibitory activity”.
For `CN(C)CCCN1C(=O)c2cccc3cccc(c23)C1=O` [Compound C91, 2-(3-Dimethylamino-propyl)-benzo[de]isoquinoline-1,3-dione], the effect on aggregation [6] was “facilitate protein-protein aggregation” and the “EC200, transcription activation” value [1] was 4000 nM.
For `CCN(CC)C(=O)c1sc(NC(=O)c2ccc(F)cc2)c(C(=O)OC(C)C)c1C` [Compound D3, 5-Diethylcarbamoyl-2-(4-fluoro-benzoylamino)-4-methyl-thiophene-3-carboxylic acid isopropyl ester], the “effect on protein aggregation” value (htt103Q-EGFP) was “facilitators of protein aggregation”.
With `CCOC(=O)c1sc(NC(=O)c2cc(S(N)(=O)=O)c(Cl)cc2Cl)c(C(=O)OCC)c1C` [Compound D4, 5-(2,4-Dichloro-5-sulfamoyl-benzoylamino)-3-methyl-thiophene-2,4-dicarboxylic acid diethyl ester] the “effect on protein aggregation” value (htt103Q-EGFP) was “inhibit protein aggregation”.
For `NCCSSCCN` [cystamine, reference compound], the “rescue from scriptaid-dependent synthetic lethality” value (PC12 cells) is listed as “rescued”, the “effect on scriptaid-stimulated expression and aggregation” value [7] is listed as “reversed the stimulatory effect” and the protein aggregation (R2/6 HD mice) is listed as “blocked protein aggregation”. For the same compound, the survival (R2/6 HD mice) was “prolonged the survival”.
